In ChEMBL document CHEMBL5465560, “Selectivity Literature for EUbOPEN Chemogenomic Library” (2024):

What was measured:
[1] = molecular target: T1, cAMP-dependent protein kinase catalytic subunit PRKX (Homo sapiens) (UniProt P51817); assay: Selectivity interaction (KinomeScan (DiscoverX)) EUB0001079a PRKX; details: at 1 µM
T1 sequence (whole entry): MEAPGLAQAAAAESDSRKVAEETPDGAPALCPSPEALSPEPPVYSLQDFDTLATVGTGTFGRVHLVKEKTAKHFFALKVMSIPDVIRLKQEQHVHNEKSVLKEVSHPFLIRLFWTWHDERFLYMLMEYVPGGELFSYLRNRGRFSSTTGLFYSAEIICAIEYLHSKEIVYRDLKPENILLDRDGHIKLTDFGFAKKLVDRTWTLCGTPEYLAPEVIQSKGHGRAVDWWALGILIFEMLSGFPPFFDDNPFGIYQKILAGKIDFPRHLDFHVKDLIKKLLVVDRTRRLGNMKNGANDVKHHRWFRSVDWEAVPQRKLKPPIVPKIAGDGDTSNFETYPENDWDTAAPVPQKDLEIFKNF

[2] = molecular target: Homeodomain-interacting protein kinase 3 (Homo sapiens, UniProt Q9H422); assay: Selectivity interaction (KinomeScan (DiscoverX)) EUB0001079a HIPK3; details: at 1 µM
Chain of Homeodomain-interacting protein kinase 3 (Q9H422 whole entry, looked up): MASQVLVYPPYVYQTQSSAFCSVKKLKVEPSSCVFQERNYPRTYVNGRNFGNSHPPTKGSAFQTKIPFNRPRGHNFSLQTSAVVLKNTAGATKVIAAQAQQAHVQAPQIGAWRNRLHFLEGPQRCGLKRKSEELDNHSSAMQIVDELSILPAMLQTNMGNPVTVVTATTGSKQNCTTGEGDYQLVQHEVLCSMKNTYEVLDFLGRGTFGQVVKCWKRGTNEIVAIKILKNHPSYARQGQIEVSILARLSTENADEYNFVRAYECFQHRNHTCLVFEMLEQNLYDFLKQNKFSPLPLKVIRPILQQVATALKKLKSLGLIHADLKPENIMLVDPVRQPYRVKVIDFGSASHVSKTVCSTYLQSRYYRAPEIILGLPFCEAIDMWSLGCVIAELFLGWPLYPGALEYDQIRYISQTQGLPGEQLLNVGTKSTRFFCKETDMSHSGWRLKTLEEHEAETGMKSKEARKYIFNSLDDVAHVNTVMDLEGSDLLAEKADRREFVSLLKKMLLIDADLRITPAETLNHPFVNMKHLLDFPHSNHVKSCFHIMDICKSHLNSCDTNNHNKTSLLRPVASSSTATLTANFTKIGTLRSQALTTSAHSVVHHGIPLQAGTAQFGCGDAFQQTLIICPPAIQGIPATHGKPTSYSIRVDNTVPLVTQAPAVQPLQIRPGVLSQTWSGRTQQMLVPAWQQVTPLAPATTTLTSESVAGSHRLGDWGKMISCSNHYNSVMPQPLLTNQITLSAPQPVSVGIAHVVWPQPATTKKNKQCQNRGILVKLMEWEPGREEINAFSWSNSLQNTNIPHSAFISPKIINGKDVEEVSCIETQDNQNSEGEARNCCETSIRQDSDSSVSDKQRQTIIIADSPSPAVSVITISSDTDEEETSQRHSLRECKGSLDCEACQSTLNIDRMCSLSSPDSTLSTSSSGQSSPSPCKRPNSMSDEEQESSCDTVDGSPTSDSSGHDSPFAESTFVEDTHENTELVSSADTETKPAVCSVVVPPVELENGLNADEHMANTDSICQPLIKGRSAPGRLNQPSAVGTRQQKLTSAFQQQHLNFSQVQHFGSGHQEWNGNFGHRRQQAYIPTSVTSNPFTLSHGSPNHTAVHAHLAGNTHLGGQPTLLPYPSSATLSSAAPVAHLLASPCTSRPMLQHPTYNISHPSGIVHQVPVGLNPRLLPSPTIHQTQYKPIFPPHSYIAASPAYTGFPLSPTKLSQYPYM

[3] = molecular target: Dual specificity protein kinase CLK1 (Homo sapiens, UniProt P49759); assay: Selectivity interaction (KinomeScan (DiscoverX)) EUB0001079a CLK1; details: at 1 µM
Chain of Dual specificity protein kinase CLK1 (P49759 whole entry, looked up): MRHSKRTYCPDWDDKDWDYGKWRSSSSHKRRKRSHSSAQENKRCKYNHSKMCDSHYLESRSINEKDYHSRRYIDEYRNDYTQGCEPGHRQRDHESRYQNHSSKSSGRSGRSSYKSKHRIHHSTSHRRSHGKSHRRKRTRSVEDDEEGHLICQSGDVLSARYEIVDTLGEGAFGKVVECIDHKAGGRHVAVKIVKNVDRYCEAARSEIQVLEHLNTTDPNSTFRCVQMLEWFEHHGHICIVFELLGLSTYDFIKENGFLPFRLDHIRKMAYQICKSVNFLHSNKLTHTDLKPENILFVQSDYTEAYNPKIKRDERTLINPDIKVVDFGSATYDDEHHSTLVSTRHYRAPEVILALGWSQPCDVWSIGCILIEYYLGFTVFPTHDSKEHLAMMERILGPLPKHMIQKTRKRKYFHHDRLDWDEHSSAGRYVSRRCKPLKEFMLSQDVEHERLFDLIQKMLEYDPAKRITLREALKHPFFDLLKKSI

[4] = molecular target: T2, Inhibitor of nuclear factor kappa-B kinase subunit beta (Homo sapiens) (UniProt O14920); assay: Selectivity interaction (Kinase panel (Invitrogen)) EUB0000639a IKBKB; details: at 200 nM
T2 sequence (whole entry): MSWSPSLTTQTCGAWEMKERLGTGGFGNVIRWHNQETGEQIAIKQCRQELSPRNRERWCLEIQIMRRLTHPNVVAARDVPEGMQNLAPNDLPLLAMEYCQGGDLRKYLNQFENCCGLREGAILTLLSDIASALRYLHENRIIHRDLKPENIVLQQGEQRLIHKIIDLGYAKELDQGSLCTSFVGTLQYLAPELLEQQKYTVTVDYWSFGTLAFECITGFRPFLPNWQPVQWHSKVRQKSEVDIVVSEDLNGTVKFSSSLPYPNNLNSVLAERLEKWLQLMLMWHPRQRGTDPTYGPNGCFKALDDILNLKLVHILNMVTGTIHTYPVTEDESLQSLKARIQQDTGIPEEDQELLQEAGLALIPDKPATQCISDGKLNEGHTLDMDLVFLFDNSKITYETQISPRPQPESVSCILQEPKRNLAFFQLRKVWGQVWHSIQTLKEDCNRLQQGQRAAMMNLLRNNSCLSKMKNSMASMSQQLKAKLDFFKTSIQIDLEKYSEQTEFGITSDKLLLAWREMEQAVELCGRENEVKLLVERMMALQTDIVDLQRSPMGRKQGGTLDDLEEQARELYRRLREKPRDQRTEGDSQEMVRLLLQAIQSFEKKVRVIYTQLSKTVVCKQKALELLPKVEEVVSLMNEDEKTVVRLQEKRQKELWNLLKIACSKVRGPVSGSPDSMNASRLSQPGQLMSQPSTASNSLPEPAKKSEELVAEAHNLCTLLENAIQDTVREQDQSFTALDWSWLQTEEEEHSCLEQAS

[5] = molecular target: NT-3 growth factor receptor (Homo sapiens, UniProt Q16288); assay: Selectivity interaction (KinomeScan (DiscoverX)) EUB0000595a NTRK3; details: at 10 µM
Chain of NT-3 growth factor receptor (Q16288 32-839 limits assumed): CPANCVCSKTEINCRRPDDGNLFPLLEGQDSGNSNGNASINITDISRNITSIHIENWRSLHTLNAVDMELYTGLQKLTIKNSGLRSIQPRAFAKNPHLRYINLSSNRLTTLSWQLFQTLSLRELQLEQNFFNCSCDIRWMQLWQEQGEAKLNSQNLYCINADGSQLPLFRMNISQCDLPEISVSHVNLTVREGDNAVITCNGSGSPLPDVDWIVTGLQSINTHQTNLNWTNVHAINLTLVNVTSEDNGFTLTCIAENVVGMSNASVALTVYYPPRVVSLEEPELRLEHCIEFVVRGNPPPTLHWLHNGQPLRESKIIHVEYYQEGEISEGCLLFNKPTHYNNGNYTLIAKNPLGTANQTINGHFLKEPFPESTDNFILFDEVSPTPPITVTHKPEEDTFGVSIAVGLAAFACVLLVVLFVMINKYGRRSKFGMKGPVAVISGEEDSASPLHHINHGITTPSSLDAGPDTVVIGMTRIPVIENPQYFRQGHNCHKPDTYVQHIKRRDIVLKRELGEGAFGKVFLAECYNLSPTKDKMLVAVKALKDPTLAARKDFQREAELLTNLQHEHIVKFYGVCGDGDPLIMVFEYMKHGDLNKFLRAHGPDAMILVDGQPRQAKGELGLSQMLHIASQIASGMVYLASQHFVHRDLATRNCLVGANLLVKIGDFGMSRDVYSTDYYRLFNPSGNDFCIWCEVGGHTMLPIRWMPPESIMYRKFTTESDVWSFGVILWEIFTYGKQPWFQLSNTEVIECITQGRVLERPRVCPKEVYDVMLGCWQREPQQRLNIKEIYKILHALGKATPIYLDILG

[6] = molecular target: T3, Discoidin domain-containing receptor 2 (Homo sapiens) (UniProt Q16832); assay: Selectivity interaction (KinomeScan (DiscoverX)) EUB0000092b DDR2; details: at 10 µM
T3 sequence (whole entry): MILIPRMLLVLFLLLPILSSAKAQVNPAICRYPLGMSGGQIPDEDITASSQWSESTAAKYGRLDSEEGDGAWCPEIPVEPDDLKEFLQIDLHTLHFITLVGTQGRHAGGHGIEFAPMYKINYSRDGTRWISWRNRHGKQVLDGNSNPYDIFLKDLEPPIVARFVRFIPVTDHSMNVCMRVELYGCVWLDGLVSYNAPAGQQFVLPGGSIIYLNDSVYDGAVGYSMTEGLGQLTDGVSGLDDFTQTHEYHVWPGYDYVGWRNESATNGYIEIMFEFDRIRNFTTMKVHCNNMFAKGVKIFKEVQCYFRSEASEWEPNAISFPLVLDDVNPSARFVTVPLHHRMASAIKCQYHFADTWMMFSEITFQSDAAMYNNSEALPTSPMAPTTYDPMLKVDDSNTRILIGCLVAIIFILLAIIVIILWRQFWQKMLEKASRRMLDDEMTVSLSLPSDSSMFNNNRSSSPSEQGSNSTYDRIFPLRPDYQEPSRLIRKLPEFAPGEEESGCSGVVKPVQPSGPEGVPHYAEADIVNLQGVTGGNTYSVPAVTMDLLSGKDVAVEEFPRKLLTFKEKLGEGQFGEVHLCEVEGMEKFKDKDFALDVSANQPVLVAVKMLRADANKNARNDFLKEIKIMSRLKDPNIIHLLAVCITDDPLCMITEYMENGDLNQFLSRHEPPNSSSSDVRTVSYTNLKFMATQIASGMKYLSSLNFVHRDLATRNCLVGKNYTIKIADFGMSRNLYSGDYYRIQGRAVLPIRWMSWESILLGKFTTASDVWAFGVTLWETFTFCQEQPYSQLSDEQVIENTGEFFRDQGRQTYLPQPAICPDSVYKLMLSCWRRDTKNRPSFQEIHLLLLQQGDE

[7] = molecular target: T4, Receptor-interacting serine/threonine-protein kinase 1 (Homo sapiens) (UniProt Q13546); details: at 10 µM
T4 sequence (whole entry): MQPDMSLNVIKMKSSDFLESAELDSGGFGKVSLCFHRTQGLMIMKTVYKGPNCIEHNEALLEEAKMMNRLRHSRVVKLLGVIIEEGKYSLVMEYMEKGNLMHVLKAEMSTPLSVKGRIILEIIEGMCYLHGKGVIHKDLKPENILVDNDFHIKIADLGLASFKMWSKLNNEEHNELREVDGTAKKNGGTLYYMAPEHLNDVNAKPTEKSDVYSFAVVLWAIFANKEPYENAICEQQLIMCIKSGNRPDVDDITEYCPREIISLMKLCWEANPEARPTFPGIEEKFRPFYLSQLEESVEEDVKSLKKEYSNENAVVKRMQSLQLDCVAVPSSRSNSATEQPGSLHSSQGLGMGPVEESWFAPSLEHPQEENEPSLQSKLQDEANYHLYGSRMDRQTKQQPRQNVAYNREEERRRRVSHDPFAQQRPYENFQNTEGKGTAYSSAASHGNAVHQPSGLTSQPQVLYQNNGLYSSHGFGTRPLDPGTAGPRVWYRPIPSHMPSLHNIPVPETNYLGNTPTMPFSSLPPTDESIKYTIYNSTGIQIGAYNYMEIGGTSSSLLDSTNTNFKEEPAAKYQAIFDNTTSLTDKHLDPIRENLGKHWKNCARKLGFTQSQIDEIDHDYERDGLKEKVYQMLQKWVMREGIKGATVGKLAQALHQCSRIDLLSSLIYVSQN

[8] = molecular target: Mitogen-activated protein kinase 1 (Homo sapiens, UniProt P28482); assay: Selectivity interaction (KinomeScan (DiscoverX)) EUB0000695a MAPK1; details: at 100 nM
Chain of Mitogen-activated protein kinase 1 (P28482 whole entry): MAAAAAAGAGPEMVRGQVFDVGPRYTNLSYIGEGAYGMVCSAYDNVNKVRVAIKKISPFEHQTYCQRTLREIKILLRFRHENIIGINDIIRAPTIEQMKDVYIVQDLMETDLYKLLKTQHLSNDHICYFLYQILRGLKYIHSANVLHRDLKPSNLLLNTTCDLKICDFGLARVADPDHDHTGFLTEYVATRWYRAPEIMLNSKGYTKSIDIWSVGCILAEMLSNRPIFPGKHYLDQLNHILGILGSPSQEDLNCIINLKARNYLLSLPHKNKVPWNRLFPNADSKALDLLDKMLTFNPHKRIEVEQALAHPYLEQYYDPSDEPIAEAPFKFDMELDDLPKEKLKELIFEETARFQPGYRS

Nc1cnc(N2CCc3cc(S(=O)(=O)Nc4c(F)cc(Cl)cc4F)cc(N4CCCC4=O)c32)nc1 [TP-020n]
% of control [1]: 99% | % of control [2]: 100% | % of control [3]: 85%

CC[C@@H]1[C@H](F)C(=O)N[C@@H]1COc1nccc2cc(C(N)=O)c(OC)cc12 [ZIMLOVISERTIB]
% of inhibition [4]: 4.3%

COCC(=O)NC/C=C/c1ccc2ncnc(Nc3ccc(Oc4ccc(C)nc4)c(C)c3)c2c1 [CP-724714]
% of control [5]: 93%

CCC(=O)N1CCN(c2ccc(-n3c(=O)ccc4cnc5ccc(-c6cnc7ccccc7c6)cc5c43)cc2C(F)(F)F)CC1
% of control [6]: 100%

Cc1cc([C@@H](C)Nc2ccccc2C(=O)O)c2nc(N3CCOCC3)cc(=O)n2c1 [AZD-6482]
% of control [7]: 100%

Cc1cc(F)c(C(=O)Nc2cccc(-c3nncn3C(C)C)n2)cc1-n1cnc(C2CC2)c1
% of control [8]: 98%
